Source: US7893199B2, “Peptides having neutrophil-stimulating activity” (National University Corporation Gunma University, priority 2006, dated 2011)
pEC50: −log10 of the molar value. Where no end group is shown, it is not given here.

How the values were obtained:
[1] = test system: HL-60 cells differentiated into the neutrophil-like cells; test: β-hexosaminidase-secreting activity of neutrophil-like differentiated HL-60 cells; assay type: cell-based, human; conditions: differentiated HL-60 cells; read-out: EC50, β-hexosaminidase-secreting activity
Summary of the method: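 HL-60 cells were differentiated with 500 μM db-cAMP for 3 days at 37 °C, then stimulated with peptide for 10 min in HBHS/0.1% BSA, pH 7.4, containing 5 μg/ml cytochalasin B and DNase I. Released β-hexosaminidase was read at 405 nm after p-nitrophenyl-N-acetylglucosaminide hydrolysis (pH 4.5, 37 °C, 1 h). Secretion is expressed relative to 10 μM fMLP, with total enzyme from 0.05% Triton X-100 lysis.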

[2] = test system: G protein in the differentiated HL-60 cell membrane fraction; test: G protein activation ability (GTP hydrolysis) in cell membrane fraction; assay type: biochemical, human
Method: (4) Measurement of G Protein Activation Ability
The cells were collected by centrifuging the suspension of the differentiated HL-60 cells (1,000 rpm, 5 minutes, 4° C.). After that, the following operation was repeated three times to wash the cells: ice-cooled PBS was added to the cells; the mixture was suspended by inversion; and the mixture was centrifuged (1,000 rpm, 5 minutes, 4° C.). Then, the precipitated cells were suspended in a buffer for preparing a cell membrane fraction (20 mM Tris-HCl, 250 mM sucrose, 1.5 mM MgCl2, 3 mM benzamidine hydrochloride monohydrate, 1 μM leupeptin, 1 μM PMSF, 2 μg/ml trypsin inhibitor, pH 7.5) and a cell homogenate was prepared using nitrogen pressing-depressing type cell homogenizing apparatus (nitrogen pressure: 350 psi). After that, the resultant was ultracentrifuged (20,000 g, 4° C., 30 minutes) to remove the supernatant, and the precipitate was suspended in a membrane fraction buffer (20 mM Tris-HCl, 1 mM EDTA, 1 mM DTT, 77.5 mTIU/ml aprotinin, pH 7.5) and used as a cell membrane fraction. After dispensed, the cell membrane fraction was stored at −80° C. The activity of the G protein was quantified using the activity to hydrolyze GTP to GDP as an index. […] The mixture was centrifuged (15,000 rpm, 1 minute, 4° C.), and the radioactivity of the supernatant was measured.

pEC50 [1]: 6.70
Sequence: MLWNLLALHQIGQRTISTASHRH [No. 019]
activation of G protein [2]: activated
